This experiment deals with T1, Recombinant human LTC4 synthase (Homo sapiens, UniProt Q16873).
T1 construct: made in house; host or cells: Pichia pastoris ('Piccia pastoralis' [sic])
T1 sequence (Q16873 1-150): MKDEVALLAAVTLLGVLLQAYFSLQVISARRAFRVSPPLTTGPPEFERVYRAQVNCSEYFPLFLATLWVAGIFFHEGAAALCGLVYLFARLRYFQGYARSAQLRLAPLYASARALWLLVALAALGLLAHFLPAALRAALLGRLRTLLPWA
As to the kind of experiment: In vitro assay of LTC4 synthase inhibition (HPLC or HTRF detection of LTC4). The format is biochemical. Conditions: inhibitor concentration 10 μM; percentage inhibitions of LTC4. On the procedure:
In the assay LTC4 synthase catalyses the reaction where the substrate LTA4 methyl ester is converted to the corresponding LTC4 methyl ester. Recombinant human LTC4 synthase is expressed in Piccia pastoralis and the purified enzyme is dissolved in 25 mM Tris-buffer pH 7.8 and stored at −20° C. The assay is performed in phosphate buffered saline (PBS) pH 7.4, supplemented with 5 mM glutathione (GSH). The reaction is terminated by addition of acetonitrile/MeOH/acetic acid (50/50/1). The assay is performed at rt in 96-well plates. Analysis of the formed LTC4 methyl ester is performed with reversed phase HPLC (Waters 2795 utilizing an Onyx Monolithic C18 column). The mobile phase consists of acetonitrile/MeOH/H2O (32.5/30/37.5) with 1% acetic acid pH adjusted with NH3 to pH 5.6, and absorbance measured at 280 nm with a Waters 2487 UV-detector.
The following is added chronologically to each well: • 1. 50 μL assay buffer, PBS with 5 mM GSH. • 2. 0.5 μL inhibitor in DMSO. • 3. 2 μL LTC4 synthase in PBS. The total protein concentration in this solution is 0.025 mg/mL. Incubation of the plate at room temperature for 10 minutes. • 4. 0.5 μL LTA4 methyl ester. Incubation of the plate at rt for 1 min. • 5. 50 μL stop solution. • 80 μL of the incubation mixture is analysed with HPLC.
Alternatively HTRF detection of LTC4 can be used:
In the assay, LTC4 synthase catalyses the reaction where the substrate LTA4 is converted to LTC4. Recombinant human LTC4 synthase is expressed in Piccia pastoralis and the purified enzyme is dissolved in 25 mM Tris-buffer pH 7.8 supplemented with 0.1 mM glutathione (GSH) and stored at −80° C. The assay is performed in phosphate buffered saline (PBS) pH 7.4 and 5 mM GSH in 384-well plates.
The following is added chronologically to each well:
1. 48 μL LTC4 synthase in PBS with 5 mM GSH. The total protein concentration in this solution is 0.5 μg/mL. 2. 1 μL inhibitor in DMSO (final concentration 10 μM). 3. Incubation of the plate at rt for 10 min. 4. 1 μL LTA4 (final concentration 2.5 μM). 5. Incubation of the plate at rt for 5 min. 6. 10 μl of the incubation mixture is analysed using HTRF detection.
For orientation: inhibition means the share of the control response that was lost under treatment. Turning to `COc1ccc(C(=O)Nc2ccc(CCc3ccc(NC(=O)c4cccc(C(F)(F)F)c4)c(C(=O)O)c3)cc2C(=O)O)cc1` [2:1, 5-{2-[3-Carboxy-4-(4-methoxybenzoylamino)phenyl]ethyl}-2-(3-trifluoromethylbenzoylamino)benzoic acid], the inhibition at 10 µM was 87%.

Consider `CC(C)(C)c1ccc(C(=O)Nc2ccc(CCc3ccc(NC(=O)c4cccc(C(F)(F)F)c4)c(C(=O)O)c3)cc2C(=O)O)cc1` [2:2, 5-{2-[3-Carboxy-4-(4-tert-butylbenzoylamino)-phenyl]ethyl}-2-(3-trifluoromethylbenzoylamino)benzoic acid], for which the inhibition at 10 µM was found to be 100%. Under `O=C(Nc1ccc(CCc2ccc(NC(=O)c3ccc(C(F)(F)F)cc3)c(C(=O)O)c2)cc1)c1cccc(C(F)(F)F)c1` [2:3, 2-(4-Trifluoromethylbenzoylamino)-5-{2-[4-(3-trifluoromethylbenzoylamino)-phenyl]-ethyl}benzoic acid] stands 85%; under `O=C(Nc1ccc(CCc2ccc(NC(=O)c3cccc(C(F)(F)F)c3)c(C(=O)O)c2)cc1C(=O)O)c1ccc(C(F)(F)F)cc1` [2:4, 5-{2-[3-Carboxy-4-(4-trifluoromethyl-benzoylamino)-phenyl]ethyl}-2-(3-trifluoromethylbenzoylamino)benzoic acid], 98%; under `O=C(Nc1ccc(C#Cc2ccc(NC(=O)c3ccc(C(F)(F)F)cc3)c(C(=O)O)c2)cc1)c1cccc(C(F)(F)F)c1` [2:5, 2-(4-Trifluoromethylbenzoylamino)-5-[4-(3-trifluoromethylbenzoylamino)-phenylethynyl]-benzoic acid], 89%. Under `CCCCc1ccc(C(=O)Nc2ccc(OCc3ccc(NC(=O)c4cccc(Cl)c4)c(C(=O)O)c3)cc2C(=O)O)cc1` [3:1, 2-(4-Butylbenzoylamino)-5-[3-carboxy-4-(3-chlorobenzoylamino)benzyloxy]-benzoic acid] stands 100%. `O=C(Nc1ccc(COc2ccc(NC(=O)c3cccc(Cl)c3)c(C(=O)O)c2)cc1C(=O)O)c1cccc(Cl)c1` [3:2, 2-(3-Chlorobenzoylamino)-5-[3-carboxy-4-(3-chlorobenzoylamino)-benzyloxy]-benzoic acid]: the inhibition at 10 µM was 100%.

As to `CCCCc1ccc(C(=O)Nc2ccc(NC(=O)c3ccc(NC(=O)c4ccc(OC(C)C)cc4)cc3)cc2C(=O)O)cc1` [4:1, 2-(4-Butylbenzoylamino)-5-[4-(4-isopropoxy-benzoylamino)benzoyl-amino]-benzoic acid], the inhibition at 10 µM stood at 79%. The result for `CCCCc1ccc(C(=O)Nc2ccc(NC(=O)c3ccc(NC(=O)c4ccccc4)cc3)cc2C(=O)O)cc1` [4:2, 5-(4-Benzoylaminobenzoylamino)-2-(4-butylbenzoylamino)benzoic acid] reads 96%. Under `CCCCc1ccc(C(=O)Nc2ccc(NC(=O)c3ccc(NS(=O)(=O)c4cccc(Cl)c4C)cc3)cc2C(=O)O)cc1` [4:3, 2-(4-Butylbenzoylamino)-5-[4-(3-chloro-2-methylbenzenesulfonylamino)-benzoylamino]-benzoic acid] stands 100%; under `O=C(O)c1cc(NS(=O)(=O)c2ccc(Oc3ccccc3)cc2)ccc1NS(=O)(=O)c1ccc(OC(F)(F)F)cc1` [5:1, 5-(4-Phenoxyphenylsulfonamido)-2-(4-(trifluoromethoxy)phenylsulfonamido)benzoic acid], 100%. In the case of `CCCCc1ccc(S(=O)(=O)Nc2ccc(NS(=O)(=O)c3ccc(Oc4ccccc4Cl)cc3)cc2C(=O)O)cc1` [5:3, 2-(4-Butylphenylsulfonamido)-5-(4-(2-chloro-phenoxy)-phenylsulfonamido)benzoic acid], the inhibition at 10 µM stood at 98%. Under `CCCCc1ccc(S(=O)(=O)Nc2ccc(NS(=O)(=O)c3ccc(Oc4ccccc4OC)cc3)cc2C(=O)O)cc1` [5:4, 2-(4-Butylphenylsulfonamido)-5-(4-(2-methoxy-phenoxy)phenylsulfonamido)benzoic acid] stands 100%; under `CCCCOc1ccc(S(=O)(=O)Nc2ccc(NS(=O)(=O)c3ccc(Oc4ccccc4Cl)cc3)cc2C(=O)O)cc1` [5:5, 2-(4-Butoxyphenylsulfonamido)-5-(4-(2-chloro-phenoxy)-phenylsulfonamido)benzoic acid], 99%. The result for `CCCCOc1ccc(S(=O)(=O)Nc2ccc(NCc3cccc(Oc4ccc(C(C)(C)C)cc4)c3)cc2C(=O)O)cc1` [6:1, 2-(4-Butoxyphenylsulfonamido)-5-(3-(4-tert-butylphenoxy)benzylamino)benzoic acid] reads 100%; that for `CCCCOc1ccc(S(=O)(=O)Nc2ccc(NCc3cccc(OCc4ccccc4Cl)c3)cc2C(=O)O)cc1` [6:2, 2-(4-Butoxyphenylsulfonamido)-5-(3-(2-chlorobenzyloxy)benzylamino)benzoic acid], 100%; that for `O=C(O)c1cc(-c2ccc(NS(=O)(=O)c3ccccc3)c(C(=O)O)c2)ccc1NS(=O)(=O)c1ccccc1` [Example 1:2, 4,4′-bis(phenylsulfonamido)biphenyl-3,3′-dicarboxylic acid], 92%. For the molecule `O=C(Nc1ccc(-c2ccc(NC(=O)c3cccc(Cl)c3)c(C(=O)O)c2)cc1C(=O)O)c1cccc(Cl)c1` [Example 1:3, 4,4′-bis(3-chlorobenzamido)biphenyl-3,3′-dicarboxylic acid], the inhibition at 10 µM worked out at 88%. For the molecule `O=C(Nc1cccc(Cl)c1)Nc1ccc(-c2ccc(NC(=O)Nc3cccc(Cl)c3)c(C(=O)O)c2)cc1C(=O)O` [Example 1:4, 4,4′-bis(3-(3-chlorophenyl)ureido)biphenyl-3,3′-dicarboxylic acid], the inhibition at 10 µM worked out at 99%. As for `O=C(O)c1cc(-c2ccc(NS(=O)(=O)c3cccnc3)c(C(=O)O)c2)ccc1NS(=O)(=O)c1cccnc1` [Example 1:5, 4,4′-bis(pyridine-3-sulfonamido)biphenyl-3,3′-dicarboxylic acid], the inhibition at 10 µM is 69%. As for `CC(C)(C)c1ccc(C(=O)Nc2ccc(-c3ccc(NC(=O)c4ccc(C(C)(C)C)cc4)c(C(=O)O)c3)cc2C(=O)O)cc1` [Example 1:6, 4,4′-bis(4-tert-butylbenzamido)biphenyl-3,3′-dicarboxylic acid], the inhibition at 10 µM was 100%. As to `O=C(Cc1ccc(Cl)cc1)Nc1ccc(-c2ccc(NC(=O)Cc3ccc(Cl)cc3)c(C(=O)O)c2)cc1C(=O)O` [Example 1:7, 4,4′-bis(2-(4-chlorophenyl)acetamido)biphenyl-3,3′-dicarboxylic acid], the inhibition at 10 µM was determined as 100%. `Nc1ccccc1C(=O)Nc1ccc(-c2ccc(NC(=O)c3ccccc3N)c(C(=O)O)c2)cc1C(=O)O` [Example 1:8, 4,4′-bis(2-aminobenzamido)biphenyl-3,3′-dicarboxylic acid]: the inhibition at 10 µM is 100%. Take `Cc1ccc(S(=O)(=O)Nc2ccc(-c3ccc(NS(=O)(=O)c4ccc(C)cc4)c(C(=O)O)c3)cc2C(=O)O)cc1` [Example 1:9, 4,4′-bis(4-methylphenylsulfonamido)biphenyl-3,3′-dicarboxylic acid]: the inhibition at 10 µM was 89%. The result for `O=C(O)c1cc(-c2ccc(NC(=O)c3cccc4ccccc34)c(C(=O)O)c2)ccc1NC(=O)c1cccc2ccccc12` [Example 1:10, 4,4′-bis(1-naphthamido)biphenyl-3,3′-dicarboxylic acid] reads 98%; that for `O=C(Nc1ccc(-c2ccc(NC(=O)c3ccccc3)c(C(=O)O)c2)cc1C(=O)O)c1ccccc1` [Example 1:11, 4,4′-bis(benzamido)biphenyl-3,3′-dicarboxylic acid], 95%; that for `CC(=O)Oc1ccc(C(=O)Nc2ccc(-c3ccc(NC(=O)c4ccc(OC(C)=O)cc4)c(C(=O)O)c3)cc2C(=O)O)cc1` [Example 1:12, 4,4′-bis(4-acetoxybenzamido)biphenyl-3,3′-dicarboxylic acid], 97%. In the case of `CCCCc1ccc(S(=O)(=O)Nc2ccc(NS(=O)(=O)c3ccc(Oc4ccccc4)cc3)cc2C(=O)O)cc1` [Example 5:2, 2-(4-Butylphenylsulfonamido)-5-(4-phenoxyphenylsulfonamido)-benzoic acid], the inhibition at 10 µM was determined as 100%.

The record behind these values is US20110294853A1, “Bis Aromatic Compounds for Use in the Treatment of Inflammation” (priority 2008, published 2011).
